Patent publication US8343539B2, “Compounds that bind α5β1 integrin and methods of use” (Regents of the University of Minnesota, priority 2006, dated 2013)
“Also recorded” adds a separate entry of the source. Where no end group is shown, it is not given here. (C16)2 = not defined here

How the values were obtained:
[1] = test system: HUVECs; assay: HUVEC adhesion on LB membranes of peptide-amphiphiles (Example 1); assay type: cell-based, human; conditions: no serum; for HUVEC adhesion compared to FN: seeded 497 cells/mm^2
Description: Surface preparation: Peptide-amphiphiles, listed in Table 1, were synthesized as described in the literature (Berndt et al., J. Am. Chem. Soc., 1995; 117:9515-9522). Langmuir-Blodgett (LB) membranes constructed from peptide-amphiphiles were deposited onto 15 mm mica disks as described elsewhere (Kokkoli et al., Langmuir, 2004; 20:2397-2404). Shortly before cell assays, the LB films were transferred into 24-well plates containing 1× phosphate buffered saline (PBS) solution (Mediatech), without exposing surfaces to air, as they rearrange to form multilayers (Hansma et al., Method. Cell Biol., 2002; 69:163-193). After equilibrating for 5-10 minutes, PBS was exchanged with 1 ml of MCDB-131 basal media (Sigma) supplemented with 0.1% bovine serum albumin (BSA) (Sigma) and antibiotics (Sigma) (2.5 μg/ml gentamicin, 2.5 μg/ml amphotericin B, 50 U/ml penicillin, and 50 μg/ml streptomycin), referred to as 0.1% BSA media. Surfaces were equilibrated at 37° C., 5% CO2 for 30-60 minutes before adding the cells. Human fibronectin-coated round coverslips (FN) 22 mm in diameter (BD Biosciences) were put into 12-well plates and 2 ml of 0.1% BSA media was added to each well. Surfaces were equilibrated for 30-60 minutes at 37° C., 5% CO2.
Cell culture: Human umbilical vein endothelial cells, HUVECs, (Cambrex Corporation) were cultured in MCDB-131 containing 20% fetal bovine serum (FBS) (Atlas Biologicals) at 37° C., 5% CO2. Other nutrients and antibiotics supplementing the media were added based on an optimal HUVEC proliferation study (Terramani et al., In Vitro Cell Dev. Biol.—Animal, 2000; 36:125-132). Media was changed in the culture flasks every other day. Cells used for adhesion and imaging studies were in passages 3-4.
Cell adhesion experiments: After cells became 90% confluent they were washed with PBS, trypsinized with 0.25% Trypsin-EDTA (Cambrex Corporation), neutralized with MCDB-131 with 2% FBS, and spun at 1000 rpm for 10 minutes. The supernatant was removed and the cell pellet was resuspended in 0.1% BSA media. Cells were counted with a hemocytometer and seeded onto LB and FN surfaces at a density of 497 cells/mm^2. Surfaces were incubated with cells in 0.1% BSA media at 37° C., 5% CO2, for 1, 4, 12, 24, 48, and 72 hours. Cell adhesion was quantified using the CyQuant Cell Proliferation Assay Kit, with a dye that binds to cellular nucleic acids, following the manufacturer's protocol (Molecular Probes). A calibration standard curve was created for each experiment. The plates were read on a SpectraMAX GeminiXS (Molecular Devices).

[2] = test system: HUVECs; assay: Actin cytoskeleton and focal adhesion staining; assay type: cell-based, human; conditions: 1-72 hours
Description: Actin cytoskeleton and focal adhesion staining: Surface transferring, cell seeding, incubation, and fixing were done as described above. Staining for the actin cytoskeleton, focal adhesions, and nucleus of attached cells was done using the Actin Cytoskeleton and Focal Adhesion Staining Kit following the manufacturer's protocol (Chemicon Int.) and using 1:350 dilution for anti-vinculin antibody, 1:200 for the secondary antibody, approximately 1:1000 dilution (equivalent to 1 unit/surface) for TRITC-conjugated phalloidin and 1:1000 for DAPI. After washing, surfaces were mounted onto glass slides and stored at 4° C. protected from light. A confocal microscope (BIORAD Multiphoton Confocal 1024) was used for imaging.

[3] = test system: HUVECs; assay: Extracellular fibronectin production by HUVECs (Example 1); assay type: cell-based, human
Description: Cell spreading and fibronectin production experiments: Surface transferring, cell seeding, and incubation were done in the same manner as in the adhesion experiment, with a cell density of 497 cells/mm^2, and incubation times of 1, 12, 24, 48, and 72 hour. At the end of each incubation, the surfaces were removed, washed with […] of PBS, and fixed in 1 ml of 4% paraformaldehyde (Sigma) in PBS for 15 minutes at 37° C., 5% CO2. After washing with PBS, surfaces were first labeled for secreted fibronectin: surfaces were subjected to a blocking solution (0.1% BSA in PBS) for 30 minutes, incubated for 1 hour with a primary antibody specific for secreted fibronectin (mouse anti-human fibronectin (P1H11) monoclonal antibody (Chemicon Int.) at a 1:500 dilution in blocking solution, and then for 45 minutes with a secondary antibody (IgG fluorescein (FITC) conjugated antibody; Chemicon Int.) at a 1:200 dilution in PBS. As a final step, cell membranes and nuclei were stained using the Image-iT™ LIVE Plasma Membrane and Nuclear Labeling Kit following the manufacturer's protocol for labeling fixed cells (Molecular Probes). After final washing, surfaces were mounted onto glass slides and stored at 4° C. protected from light. An inverted fluorescent microscope (Nikon Eclipse TE200 with Pixcell II LCM) was used for imaging. Fibronectin production was assessed visually, by comparing 10-20 fluorescence images from two samples for each substrate (two independent experiments performed at different days). Cell spreading was quantified from two samples per substrate (two independent experiments performed at different days) by measuring cell area with the NIH imaging software.

[4] = test system: CT26.WT cells; assay: Blocking of liposome binding with free PR_b peptide-amphiphile (flow cytometry); assay type: cell-based, mouse; conditions: free peptide-amphiphile 200 μg/ml, 1 hr pre-incubation, 4° C.
Description: Flow cytometry: CT26.WT confluent cell monolayers were trypsinized (0.25% Trypsin+0.1% EDTA) and resuspended in ice-cold FB (fluorescent buffer: phosphate buffered saline (PBS) supplemented with 0.02% sodium azide and 2.5% fetal bovine serum) containing liposomes at a lipid concentration of 250 μM and a cell concentration of 1 million/ml in 15 ml centrifuge tubes. Tubes were incubated at 4° C. or 37° C. over a rotary shaker for the specified duration of time. Cells were then pelleted and washed twice in FB. Flow cytometric analysis was carried out immediately. For peptide blocking experiments, the protocol specified above was used except cells were incubated with 200 μg/ml of free peptide-amphiphile in FB for one hour prior to incubating the cells with the liposomes. For integrin α5β1 expression studies, CT26.WT confluent cell monolayers were trypsinized (0.25% Trypsin+0.1% EDTA) and resuspended in ice-cold FB at a cell concentration of 1 million/ml in 15 ml centrifuge tubes. Tubes were incubated at 4° C. with primary antibody (anti-integrin α5β1) or goat isotype control (goat IgG) over a rotary shaker for 35 min. Cells were then pelleted and washed twice in FB and then incubated again with the secondary antibody (anti-goat IgG FITC conjugated) for 35 min. Finally, cells were pelleted and washed twice. Flow cytometric analysis was carried out immediately. […]

Substance: (C16)2-Glu-C2-KSSPHSRNSGSGSGSGSGRGDSP ({(C16)2-Glu-C2}-KSSPHSRNSGSGSGSGSGRGDSP; not fully specified; reading uncertain) [PR_b]
- HUVEC adhesion compared to FN ([1]; 1-24 hours): higher adhesion than FN
- Ability of substrate to sustain HUVEC adhesion over time ([1]; 1-72 hours): effectively adhered
- HUVEC adhesion compared to the other peptide surfaces ([1]; 1-72 hours): most promising sequence; also recorded: outperformed all other peptide substrates; also recorded: outperforms all other peptide surfaces
- HUVEC adhesion compared to FN ([1]; 48-72 hours): similar; also recorded: equivalent
- Actin stress fibers and focal contacts [2]: displayed actin stress fibers and focal contacts
- Cytoskeletal organization and focal adhesion compared to FN [2]: better-developed cytoskeletal structure compared to FN; also recorded: stronger cytoskeletal organization and focal adhesion formation
- Fibronectin secretion by adhered HUVECs ([3]; after 48 hours): fully covered with secreted fibronectin
- Amount of fibronectin secretion, PR_b versus FN ([3]; all times examined): comparable for both substrates
- Blocking of binding of PR_b and GRGDSP targeted stealth liposomes (low PEG2000) to CT26.WT cells [4]: completely blocks the binding; also recorded: completely blocked
